Literature values in patent publication US12318461B2, “Salicylic acid gel” (Vantage Specialty Ingredients, Inc., priority 2012, dated 2025).

solubility in water: poorly soluble
Compound: O=C(O)c1ccccc1O [Salicylic acid, 2-hydroxybenzenecarboxylic acid]
